The supplement of paper PMC10627819

Columns and labels:
Assay in all cases: Bliss interaction score (quartile over a dose matrix) (fitness difference); higher = more antagonism (negative = synergy)
[1] = tested on: S. aureus Newman
In short: (§1)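 Fitness was OD595 at entry into stationary phase divided by the plate's robust no-drug mean and capped at 1; single-drug fitness was inferred from combination data. The Bliss score is observed minus expected (product) fitness, summarised by quartiles over technical, biological and donor/recipient replicates.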

[2] = tested on: S. pneumoniae D39V
In short: as §1

[3] = tested on: S. aureus DSM 20231
In short: as §1

[4] = tested on: B. subtilis 168
In short: as §1
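Further: first quartile when negative (synergy) and third quartile when positive (antagonism).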

| SMILES | Bliss interaction score [1] | Bliss interaction score [2] | Bliss interaction score [3] | Bliss interaction score [4] | Bliss interaction score ([1]; main component drawn) | Bliss interaction score ([2]; main component drawn) | Bliss interaction score ([3]; main component drawn) | Bliss interaction score ([4]; main component drawn) |
| --- | --- | --- | --- | --- | --- | --- | --- | --- |
| CC[C@H]1OC(=O)[C@H](C)[C@@H](O[C@H]2C[C@@](C)(OC)[C@@H](O)[C@H](C)O2)[C@H](C)[C@@H](O[C@@H]2O[C@H](C)C[C@H](N(C)C)[C@H]2O)[C@](C)(OC)C[C@@H](C)C(=O)[C@H](C)[C@@H](O)[C@]1(C)O [Clarithromycin] + CC[C@H]1OC(=O)[C@H](C)C(=O)[C@H](C)[C@@H](O[C@@H]2O[C@H](C)C[C@H](N(C)C)[C@H]2O)[C@](C)(OC)C[C@@H](C)C(=O)[C@H](C)[C@H]2N(CCCCn3cnc(-c4cccnc4)c3)C(=O)O[C@]12C [Telithromycin] | -0.0507 | 0.056 | -0.0599 | 0.0309 |  |  |  |  |
| CC[C@H]1OC(=O)[C@H](C)[C@@H](O[C@H]2C[C@@](C)(OC)[C@@H](O)[C@H](C)O2)[C@H](C)[C@@H](O[C@@H]2O[C@H](C)C[C@H](N(C)C)[C@H]2O)[C@](C)(OC)C[C@@H](C)C(=O)[C@H](C)[C@@H](O)[C@]1(C)O [Clarithromycin] + CC[C@H]1OC(=O)[C@H](C)[C@@H](O[C@H]2C[C@@](C)(OC)[C@@H](O)[C@H](C)O2)[C@H](C)[C@@H](O[C@@H]2O[C@H](C)C[C@H](N(C)C)[C@H]2O)[C@](C)(O)C[C@@H](C)C(=O)[C@H](C)[C@@H](O)[C@]1(C)O [Erythromycin] | -0.0296 | 0.0551 | 0.0159 | -0.0372 |  |  |  |  |
| CC[C@H]1OC(=O)[C@H](C)[C@@H](O[C@H]2C[C@@](C)(OC)[C@@H](O)[C@H](C)O2)[C@H](C)[C@@H](O[C@@H]2O[C@H](C)C[C@H](N(C)C)[C@H]2O)[C@](C)(OC)C[C@@H](C)C(=O)[C@H](C)[C@@H](O)[C@]1(C)O [Clarithromycin] + CN(C)[C@@H]1C(O)=C(C(N)=O)C(=O)[C@@]2(O)C(O)=C3C(=O)c4c(O)ccc(Cl)c4[C@@](C)(O)[C@H]3C[C@@H]12 [Clortetracycline] | -0.094 | 0.0391 | -0.28 | -0.392 |  |  |  |  |
| CC[C@H]1OC(=O)[C@H](C)[C@@H](O[C@H]2C[C@@](C)(OC)[C@@H](O)[C@H](C)O2)[C@H](C)[C@@H](O[C@@H]2O[C@H](C)C[C@H](N(C)C)[C@H]2O)[C@](C)(OC)C[C@@H](C)C(=O)[C@H](C)[C@@H](O)[C@]1(C)O [Clarithromycin] + CN[C@H](CC(C)C)C(=O)N[C@H]1C(=O)N[C@@H](CC(N)=O)C(=O)N[C@H]2C(=O)N[C@H]3C(=O)N[C@H](C(=O)N[C@H](C(=O)O)c4cc(O)cc(O)c4-c4cc3ccc4O)[C@H](O[C@H]3C[C@](C)(N)[C@@H](O)[C@H](C)O3)c3ccc(c(Cl)c3)Oc3cc2cc(c3O[C@@H]2O[C@H](CO)[C@@H](O)[C@H](O)[C@H]2O[C@H]2C[C@](C)(NCc3ccc(-c4ccc(Cl)cc4)cc3)[C@@H](O)[C@H](C)O2)Oc2ccc(cc2Cl)[C@H]1O [Oritavancin] | -0.0471 | 0.0635 | -0.0389 | 0.0293 |  |  |  |  |
| CC[C@H]1OC(=O)[C@H](C)[C@@H](O[C@H]2C[C@@](C)(OC)[C@@H](O)[C@H](C)O2)[C@H](C)[C@@H](O[C@@H]2O[C@H](C)C[C@H](N(C)C)[C@H]2O)[C@](C)(OC)C[C@@H](C)C(=O)[C@H](C)[C@@H](O)[C@]1(C)O [Clarithromycin] + CO[C@@H]1[C@@H](OC(N)=O)[C@@H](O)[C@H](Oc2ccc3c(O)c(NC(=O)c4ccc(O)c(CC=C(C)C)c4)c(=O)oc3c2C)OC1(C)C [Novobiocin] | 0.0643 | -0.0569 | -0.0522 | 0.125 |  |  |  |  |
| CC[C@H]1OC(=O)[C@H](C)[C@@H](O[C@H]2C[C@@](C)(OC)[C@@H](O)[C@H](C)O2)[C@H](C)[C@@H](O[C@@H]2O[C@H](C)C[C@H](N(C)C)[C@H]2O)[C@](C)(OC)C[C@@H](C)C(=O)[C@H](C)[C@@H](O)[C@]1(C)O [Clarithromycin] + CO[C@@]12[C@H](COC(N)=O)C3=C(C(=O)C(C)=C(N)C3=O)N1C[C@@H]1N[C@@H]12 [MitomycinC] | 0.0537 | -0.0527 | -0.0723 | 0.036 |  |  |  |  |
| CC[C@H]1OC(=O)[C@H](C)[C@@H](O[C@H]2C[C@@](C)(OC)[C@@H](O)[C@H](C)O2)[C@H](C)[C@@H](O[C@@H]2O[C@H](C)C[C@H](N(C)C)[C@H]2O)[C@](C)(OC)C[C@@H](C)C(=O)[C@H](C)[C@@H](O)[C@]1(C)O [Clarithromycin] + COc1cc(Cc2cnc(N)nc2N)cc(OC)c1OC [Trimethoprim] | 0.0667 | -0.0331 | 0.0723 | -0.193 |  |  |  |  |
| CC[C@H]1OC(=O)[C@H](C)[C@@H](O[C@H]2C[C@@](C)(OC)[C@@H](O)[C@H](C)O2)[C@H](C)[C@@H](O[C@@H]2O[C@H](C)C[C@H](N(C)C)[C@H]2O)[C@](C)(OC)C[C@@H](C)C(=O)[C@H](C)[C@@H](O)[C@]1(C)O [Clarithromycin] + N[C@@H]1CONC1=O [CycloserineD] | -0.0691 | 0.136 | -0.127 | 0.077 |  |  |  |  |
| CC[C@H]1OC(=O)[C@H](C)[C@@H](O[C@H]2C[C@@](C)(OC)[C@@H](O)[C@H](C)O2)[C@H](C)[C@@H](O[C@@H]2O[C@H](C)C[C@H](N(C)C)[C@H]2O)[C@](C)(OC)C[C@@H](C)C(=O)[C@H](C)[C@@H](O)[C@]1(C)O [Clarithromycin] + O=C(O)[C@H]1/C(=C/CO)O[C@@H]2CC(=O)N21 [Clavulanic] | 0.277 | -0.059 | -0.212 | 0.047 |  |  |  |  |
| CC[C@H]1OC(=O)[C@H](C)[C@@H](O[C@H]2C[C@@](C)(OC)[C@@H](O)[C@H](C)O2)[C@H](C)[C@@H](O[C@@H]2O[C@H](C)C[C@H](N(C)C)[C@H]2O)[C@](C)(OC)C[C@@H](C)C(=O)[C@H](C)[C@@H](O)[C@]1(C)O [Clarithromycin] + Oc1cc(Cl)ccc1Oc1ccc(Cl)cc1Cl [Triclosan] | 0.032 | 0.0396 | -0.0868 | 0.0259 |  |  |  |  |
| CCC[C@@H]1C[C@@H](C(=O)N[C@@H]([C@H]2O[C@H](SC)[C@H](O)[C@@H](O)[C@H]2O)[C@H](C)Cl)N(C)C1 [Clindamycin] + CC1(C)S[C@@H]2[C@H](NC(=O)Cc3ccccc3)C(=O)N2[C@H]1C(=O)O [PenicillinG] | -0.0587 | 0.0611 | 0.0609 | 0.0383 |  |  |  |  |
| CCC[C@@H]1C[C@@H](C(=O)N[C@@H]([C@H]2O[C@H](SC)[C@H](O)[C@@H](O)[C@H]2O)[C@H](C)Cl)N(C)C1 [Clindamycin] + CC(=O)O[C@H]1C[C@@]2(C)[C@@H](C[C@@H](O)[C@H]3[C@@]4(C)CC[C@@H](O)[C@@H](C)[C@@H]4CC[C@@]32C)/C1=C(\CCC=C(C)C)C(=O)O [Fusidic acid] | 0.0307 | 0.0662 | 0.0254 | 0.0418 |  |  |  |  |
| CCC[C@@H]1C[C@@H](C(=O)N[C@@H]([C@H]2O[C@H](SC)[C@H](O)[C@@H](O)[C@H]2O)[C@H](C)Cl)N(C)C1 [Clindamycin] + CC[C@H]1OC(=O)[C@H](C)C(=O)[C@H](C)[C@@H](O[C@@H]2O[C@H](C)C[C@H](N(C)C)[C@H]2O)[C@](C)(OC)C[C@@H](C)C(=O)[C@H](C)[C@H]2N(CCCCn3cnc(-c4cccnc4)c3)C(=O)O[C@]12C [Telithromycin] | -0.0812 | 0.106 | 0.0256 | 0.0609 |  |  |  |  |
| CCC[C@@H]1C[C@@H](C(=O)N[C@@H]([C@H]2O[C@H](SC)[C@H](O)[C@@H](O)[C@H]2O)[C@H](C)Cl)N(C)C1 [Clindamycin] + CC[C@H]1OC(=O)[C@H](C)[C@@H](O[C@H]2C[C@@](C)(OC)[C@@H](O)[C@H](C)O2)[C@H](C)[C@@H](O[C@@H]2O[C@H](C)C[C@H](N(C)C)[C@H]2O)[C@](C)(O)C[C@@H](C)C(=O)[C@H](C)[C@@H](O)[C@]1(C)O [Erythromycin] | -0.0542 | 0.123 | -0.0244 | 0.0748 |  |  |  |  |
| CCC[C@@H]1C[C@@H](C(=O)N[C@@H]([C@H]2O[C@H](SC)[C@H](O)[C@@H](O)[C@H]2O)[C@H](C)Cl)N(C)C1 [Clindamycin] + CN(C)[C@@H]1C(O)=C(C(N)=O)C(=O)[C@@]2(O)C(O)=C3C(=O)c4c(O)ccc(Cl)c4[C@@](C)(O)[C@H]3C[C@@H]12 [Clortetracycline] | -0.191 | -0.0954 | -0.0617 | -0.212 |  |  |  |  |
| CCC[C@@H]1C[C@@H](C(=O)N[C@@H]([C@H]2O[C@H](SC)[C@H](O)[C@@H](O)[C@H]2O)[C@H](C)Cl)N(C)C1 [Clindamycin] + CN[C@H](CC(C)C)C(=O)N[C@H]1C(=O)N[C@@H](CC(N)=O)C(=O)N[C@H]2C(=O)N[C@H]3C(=O)N[C@H](C(=O)N[C@H](C(=O)O)c4cc(O)cc(O)c4-c4cc3ccc4O)[C@H](O[C@H]3C[C@](C)(N)[C@@H](O)[C@H](C)O3)c3ccc(c(Cl)c3)Oc3cc2cc(c3O[C@@H]2O[C@H](CO)[C@@H](O)[C@H](O)[C@H]2O[C@H]2C[C@](C)(NCc3ccc(-c4ccc(Cl)cc4)cc3)[C@@H](O)[C@H](C)O2)Oc2ccc(cc2Cl)[C@H]1O [Oritavancin] | 0.0703 | 0.0382 | 0.0257 | 0.0359 |  |  |  |  |
| CCC[C@@H]1C[C@@H](C(=O)N[C@@H]([C@H]2O[C@H](SC)[C@H](O)[C@@H](O)[C@H]2O)[C@H](C)Cl)N(C)C1 [Clindamycin] + CO[C@@]12[C@H](COC(N)=O)C3=C(C(=O)C(C)=C(N)C3=O)N1C[C@@H]1N[C@@H]12 [MitomycinC] | 0.0745 | 0.0747 | -0.0349 | 0.0747 |  |  |  |  |
| CCC[C@@H]1C[C@@H](C(=O)N[C@@H]([C@H]2O[C@H](SC)[C@H](O)[C@@H](O)[C@H]2O)[C@H](C)Cl)N(C)C1 [Clindamycin] + N[C@@H]1CONC1=O [CycloserineD] | 0.0633 | 0.165 | -0.101 | 0.0351 |  |  |  |  |
| CCC[C@@H]1C[C@@H](C(=O)N[C@@H]([C@H]2O[C@H](SC)[C@H](O)[C@@H](O)[C@H]2O)[C@H](C)Cl)N(C)C1 [Clindamycin] + Oc1cc(Cl)ccc1Oc1ccc(Cl)cc1Cl [Triclosan] | 0.0225 | -0.101 | -0.0305 | 0.065 |  |  |  |  |
| N[C@@H]1CONC1=O [CycloserineD] + C/C(=C\C(=O)OCCCCCCCCC(=O)O)C[C@@H]1OC[C@H](C[C@@H]2O[C@H]2[C@@H](C)[C@H](C)O)[C@@H](O)[C@H]1O [Pseudomonic acid] | -0.0141 | 0.136 | 0.009 | -0.0491 |  |  |  |  |
| N[C@@H]1CONC1=O [CycloserineD] + CC1(C)S[C@@H]2[C@H](NC(=O)Cc3ccccc3)C(=O)N2[C@H]1C(=O)O [PenicillinG] | 0.0553 | -0.221 | -0.0754 | 0.116 |  |  |  |  |
| N[C@@H]1CONC1=O [CycloserineD] + CC1=C\[C@@H](O)CC(=O)Cc2nc(co2)C(=O)N2CCC=C2C(=O)O[C@H](C(C)C)[C@H](C)/C=C/C(=O)NC\C=C\1 [Virginiamycin M1] | 0.0587 | -0.0528 | 0.101 | -0.0364 |  |  |  |  |
| N[C@@H]1CONC1=O [CycloserineD] + CC(=O)NC[C@H]1CN(c2ccc(N3CCOCC3)c(F)c2)C(=O)O1 [Linezolid] | 0.06 | 0.146 | -0.125 | -0.0639 |  |  |  |  |
| N[C@@H]1CONC1=O [CycloserineD] + CC(=O)O[C@H]1C[C@@]2(C)[C@@H](C[C@@H](O)[C@H]3[C@@]4(C)CC[C@@H](O)[C@@H](C)[C@@H]4CC[C@@]32C)/C1=C(\CCC=C(C)C)C(=O)O [Fusidic acid] | -0.0418 | 0.211 | 0.0576 | 0.0616 |  |  |  |  |
| N[C@@H]1CONC1=O [CycloserineD] + CC(C1CCC(C(O1)OC2C(CC(C(C2O)OC3C(C(C(CO3)(C)O)NC)O)N)N)N)NC [Gentamicin] |  |  |  |  | 0.0356 | -0.0744 | -0.125 | -0.0482 |
